We go through four compounds from ChEMBL document CHEMBL2146418, “Synthesis and comparison of antiplasmodial activity of (+), (-) and racemic 7-chloro-4-(N-lupinyl)aminoquinoline” (Bioorg Med Chem, 2012).

Data set [1] relates to Plasmodium falciparum. Briefly: Antiplasmodial activity against chloroquine-resistant Plasmodium falciparum isolate Kenya after 72 hrs by lactate dehydrogenase assay. It is filed as functional, organism-based.
The subject of data set [2] is Plasmodium falciparum. Briefly: Antiplasmodial activity against chloroquine-resistant Plasmodium falciparum W2 infected in human RBC assessed as inhibition of parasite growth after 72 hrs by lactate dehydrogenase assay. It is filed as functional, organism-based. The settings on record: W2, 72 h.
Data set [3] relates to Plasmodium falciparum. Briefly: Antiplasmodial activity against chloroquine-sensitive Plasmodium falciparum 3D7 infected in human RBC assessed as inhibition of parasite growth after 72 hrs by lactate dehydrogenase assay. It is filed as functional, organism-based. As to conditions: 3D7, 72 h.
Data set [4] can be described thus: Cytotoxicity against human HMEC1 cells after 72 hrs by MTT assay. As to conditions: HMEC-1, 72 h. Format: cell-based.
The subject of data set [5] is Plasmodium falciparum. Briefly: Antiplasmodial activity against chloroquine-sensitive Plasmodium falciparum D10 infected in human RBC assessed as inhibition of parasite growth after 72 hrs by lactate dehydrogenase assay. Format: functional, organism-based. As to conditions: D10, 72 h.
Data set [6] is described as follows: Cytotoxicity against human HDF cells after 72 hrs by MTT assay. It is filed as cell-based.
The nature of data set [7]: Therapeutic index, ratio of IC50 for human HMEC1 cells to IC50 for Plasmodium falciparum. Format: cell-based. As to conditions: HMEC1 cells versus Plasmodium falciparum, read-out: Ratio IC50.

A word on the IC50: it is the concentration that gives 50% inhibition.

As for `Clc1ccc2c(NC[C@@H]3CCCN4CCCC[C@H]34)ccnc2c1`, the IC50 in the data set with Plasmodium falciparum [1] was 29.2 nM; in the data set with Plasmodium falciparum [2] it was 53.7 nM; with Plasmodium falciparum [3], 28.1 nM; in data set [4] it was > 49000 nM; in the data set with Plasmodium falciparum [5] it was 24 nM; in data set [6], 22600 nM. In addition, the selectivity ratio in data set [7] was > 1000.

For `CCN(CC)CCCC(C)Nc1ccnc2cc(Cl)ccc12` (stereo not drawn) [CHLOROQUINE], the IC50 in data set [4] and in data set [6] was > 38000 nM each time.

Turning to `Clc1ccc2c(NCC3CCCN4CCCCC34)ccnc2c1` (racemic), the IC50 in the data set on Plasmodium falciparum [1] was 19.4 nM; in the data set on Plasmodium falciparum [2], 35.4 nM; in the data set with Plasmodium falciparum [3], 18.6 nM; in data set [4], > 60000 nM; in the data set with Plasmodium falciparum [5], 16.1 nM; in data set [6] it was 24600 nM. The selectivity ratio in data set [7] is > 1000.

For the compound `Clc1ccc2c(NC[C@H]3CCCN4CCCC[C@@H]34)ccnc2c1`, the IC50 is 18.9 nM in the data set with Plasmodium falciparum [1]; 35.8 nM in the data set with Plasmodium falciparum [2]; 21.9 nM in the data set with Plasmodium falciparum [3]; > 60000 nM in data set [4]; 17.5 nM in the data set with Plasmodium falciparum [5]; 26900 nM in data set [6]. Further, the selectivity ratio in data set [7] is > 1000.
